We go through 1 substance from patent US10471095B2, “Suspension of graphene oxide nanoflakes in water, its use and a method of preparation thereof” (priority 2014, dated 2019).

The test system of this data set is chicken embryo. Kind of data set: Toxicity of graphene oxide and nano-Pt in chicken embryo (in ovo). The note with it: in vivo. The procedure: Biological models: study was conducted on models: 1. Chicken embryo maintained by in ovo method, which above all allowed for fast, accurate and insightful observations of potential toxicity, especially embryotoxicity of graphene oxide and Pt nanoparticles of various concentrations. 2. Glioblastoma multiforme GM (U-87) cell lines in order to observe basic mechanisms occurring in the cells under the influence of graphene oxide and platinum nanoparticles and having selected the used experimental factors 3. Glioblastoma multiforme (U-87) tumour grown by in ovo method in order to confirm or reject the preliminary results. This study allowed for the final verification of formulated hypotheses.
Step I—preliminary study—determination of potential toxic properties of graphene oxide and nano-Pt in contact with a living organism (chicken embryo) • Determination of the influence of graphene oxide and nano-Pt on homeostasis of the organism of chicken embryo (survival rate, growth and development, biochemical and morphological indicators of blood, expression of selected genes, image of microstructure and ultrastructure of the brain, apoptosis/necrosis and others). […] The study indicated a potential antitumor effect of Pt nanoparticles and a low degree of toxicity.

For graphene oxide, the “toxic effects on biochemical and morphological indicators of blood, FGF, VEGF, PCNA gene expression, microstructure and ultrastructure of brain and liver” value is given as “does not exhibit toxic effects”.
